Measurements as given in patent publication US9718790B2, “Triazine derivative and pharmaceutical composition having an analgesic activity comprising the same” (SHIONOGI & CO., LTD., priority 2010, dated 2017).
pIC50: −log10 of the molar value.

target: human P2X3 receptor (Homo sapiens (Human), UniProt P56373); assay: Evaluation of human P2X3 receptor inhibitory activity (Fluo-3 calcium fluorescence, FDSS 3000, ATP stimulation); type: cell-based; details: C6BU-1 cells stably expressing human P2X3 receptor;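 further: stimulus was 50 nM ATP with fluorescence followed for 3 min, and the response per well was peak post-ATP fluorescence divided by the reading at measurement start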
Sequence (P56373 whole entry): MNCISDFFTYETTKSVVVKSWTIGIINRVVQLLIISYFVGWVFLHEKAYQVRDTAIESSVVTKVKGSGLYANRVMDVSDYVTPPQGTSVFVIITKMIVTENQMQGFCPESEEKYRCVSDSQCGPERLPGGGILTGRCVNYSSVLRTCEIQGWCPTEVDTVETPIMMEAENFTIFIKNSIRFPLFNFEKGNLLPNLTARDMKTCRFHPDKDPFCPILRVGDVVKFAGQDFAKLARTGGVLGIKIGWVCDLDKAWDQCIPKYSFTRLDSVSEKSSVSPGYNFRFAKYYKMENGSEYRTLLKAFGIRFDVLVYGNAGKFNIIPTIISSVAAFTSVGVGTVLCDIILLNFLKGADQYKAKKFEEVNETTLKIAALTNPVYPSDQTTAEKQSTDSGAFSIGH

Compound | pIC50
COC(=O)C(C)(C)Cn1c(=O)[nH]/c(=N\c2ccc(OCC3CC3)cc2)n(Cc2ccc(Cl)cc2)c1=O [Compound I-1236] | 7.89
CCOC(=O)[C@@H](C)Cn1c(=O)[nH]/c(=N\c2ccc3oc(CO)cc3c2)n(Cc2ccc(Cl)cc2)c1=O [Compound I-1971] | 7.21
CCn1c(=O)[nH]/c(=N\c2ccc(Oc3ccc(C(=O)O)nc3)cc2)n(Cc2ccc(Cl)cc2)c1=O [Compound I-2115] | 7.74
COCc1cc(/N=c2\[nH]c(=O)n(CC(C)(C)C(=O)OC)c(=O)n2Cc2ccc(Cl)cc2)ccc1OC(C)C [Compound I-1422] | 6.28
Cc1ccc(Cn2c(=O)n(C[C@H](C)C(=O)O)c(=O)[nH]/c2=N\c2ccc(Oc3cccnc3C)cc2)cc1 [Compound I-1231] | 7.44
CCOC(=O)CCn1c(=O)[nH]/c(=N\c2ccc(OC3CCC3)c(C)c2)n(Cc2ccc(C)cc2)c1=O [Compound I-1400] | 7.89
O=c1[nH]/c(=N\c2ccc(OC3CCC3)cc2)n(Cc2ccc(Cl)cc2)c(=O)n1CC(CO)CO [Compound I-1974] | 8.15
Cc1oc2ccc(/N=c3\[nH]c(=O)n(CC4COC(C)(C)OC4)c(=O)n3Cc3ccc(Cl)cc3)cc2c1C [Compound I-2071] | 8.10
CC(C)Oc1ccc(/N=c2\[nH]c(=O)n(CC(=O)NN)c(=O)n2Cc2ccc(Cl)cc2)cc1F [Compound I-0635] | 7.72
COC(=O)[C@@H](C)Cn1c(=O)[nH]/c(=N\c2ccc(C)c(Cl)c2)n(Cc2ccc(Cl)cc2)c1=O [Compound I-0691] | 7.32
Cc1cc(/N=c2\[nH]c(=O)n(Cc3ccc[nH]c3=O)c(=O)n2Cc2ccc(Cl)cc2)ccc1OC(C)C [Compound I-0725] | 7.85
Cc1cc(/N=c2\[nH]c(=O)n(Cc3cccn(CC(=O)O)c3=O)c(=O)n2Cc2ccc(Cl)cc2)ccc1OC(C)C [Compound I-0760] | 7.43
CCOC(=O)C1CCC(n2c(=O)[nH]/c(=N\c3ccc(OC(C)C)c(C)c3)n(Cc3ccc(Cl)cc3)c2=O)CC1 (stereo not drawn) [Compound I-0718] | 7.03
O=c1[nH]/c(=N\c2ccc(OC3CCC3)cc2)n(Cc2ccc(Cl)cc2)c(=O)n1CCO [Compound I-2010] | 7.27
COC(=O)Cn1c(=O)[nH]/c(=N\c2ccc(OCC3CC3)cc2)n(Cc2ccc(Cl)cc2)c1=O [Compound I-1930] | 7.54
CC(C)Oc1ccc(/N=c2\[nH]c(=O)n(CCN(CCO)C(=O)OC(C)(C)C)c(=O)n2Cc2ccc(Cl)cc2)cc1F [Compound I-2109] | 7.96
O=C(O)CCn1c(=O)[nH]/c(=N\c2ccc(Oc3cccnc3)cc2)n(Cc2ccc(Cl)cc2)c1=O [Compound I-1206] | 7.37
COC(=O)[C@@H](C)Cn1c(=O)[nH]/c(=N\c2cnc(Oc3ccccc3)c(Cl)c2)n(Cc2ccc(C)cc2)c1=O [Compound I-1474] | 6.86
CC(C)Cc1ccc(/N=c2\[nH]c(=O)n([C@H](C)[C@H](C)C(=O)O)c(=O)n2Cc2ccc(Cl)cc2)cc1Cl [Compound I-1445] | 8.40
COc1cc(/N=c2\[nH]c(=O)n(C[C@H](C)C(=O)O)c(=O)n2Cc2ccc(C)cc2)ccc1Br [Compound I-1244] | 6.33
C[C@H](C(=O)O)[C@@H](C)n1c(=O)[nH]/c(=N\c2ccc(OC3CCC3)cc2)n(Cc2ccc(Cl)cc2)c1=O [Compound I-1456] | 7.85
CCn1c(=O)[nH]/c(=N\c2ccc(Oc3cc(F)cc(C(=O)OC)c3)cc2)n(Cc2ccc(Cl)cc2)c1=O [Compound I-2219] | 7.85
O=c1[nH]/c(=N\c2ccc3nc(C4CC4)sc3c2)n(Cc2ccc(Cl)cc2)c(=O)n1CCOC1CCCCO1 (stereo not drawn) [Compound I-2024] | 8.30
CCOC(=O)CCn1c(=O)[nH]/c(=N\c2ccc(OC(C)C)c(Cl)c2)n(CC2CCC3(CC2)CC3)c1=O [Compound I-1449] | 8.40
Cc1ccc(Cn2c(=O)n(C[C@H](C)C(=O)O)c(=O)[nH]/c2=N\c2ccc(OC3CCCCC3)cc2)cc1 [Compound I-1222] | 7.77
CC(C)Oc1ccc(/N=c2\[nH]c(=O)n(CC(=O)NCCC3CCOCC3)c(=O)n2Cc2ccc(Cl)cc2)cc1Cl [Compound I-0666] | 8.10

same assay, conditions: C6BU-1 cells stably expressing human P2X3 receptor, Fluo-3 fluorescence, FDSS 3000

Compound | pIC50
COC(=O)[C@@H](C)Cn1c(=O)[nH]/c(=N\c2ccc(OC3CCC3)nc2)n(Cc2ccc(C)cc2)c1=O [Compound I-1187] | 7.24
Cc1ccc(Cn2c(=O)n(C[C@H](C)C(=O)O)c(=O)[nH]/c2=N\c2ccc(OC(F)(F)F)c(Cl)c2)cc1 [Compound I-1033] | 7.17
CC(C)Oc1ccc(/N=c2\[nH]c(=O)n(C[C@H](C)C(=O)O)c(=O)n2Cc2ccc(Cl)cc2)cc1C#N [Compound I-0960] | 7.15
COC(=O)[C@@H](C)Cn1c(=O)[nH]/c(=N\c2cccc(Br)c2)n(Cc2ccc(C)cc2)c1=O [Compound I-1077] | 7.19
CCCOc1ccc(/N=c2\[nH]c(=O)n(CC3(C(=O)O)CC3)c(=O)n2Cc2ccc(Cl)cc2)cc1 [Compound I-0925] | 7.23
CCc1oc2ccc(/N=c3\[nH]c(=O)n(CC(=O)NCCO)c(=O)n3Cc3ccc(Cl)cc3)cc2c1C [Compound I-1658] | 8.22
CCC[C@H](C)Oc1ccc(/N=c2\[nH]c(=O)n(CCC(=O)OCC)c(=O)n2Cc2ccc(C)cc2)cc1 [Compound I-1052] | 7.72
C=C(C)c1ccc(Cn2c(=O)n(C[C@H](C)C(=O)O)c(=O)[nH]/c2=N\c2ccc(OC(C)C)c(C)c2)cc1 [Compound I-1001] | 6.53
CCc1ccc(Cn2c(=O)n(C[C@H](C)C(=O)O)c(=O)[nH]/c2=N\c2ccc(OC(C)C)c(C)c2)cc1 [Compound I-0898, (S)-1-(4-ethylbenzyl)-6-(3-mehyl-4-isopropoxyphenylimino)-3-(2-hydroxycarbonylpropyl)-1,3,5-triazinane-2,4-dion] | 7.70
COC(=O)[C@H](C)[C@H](C)n1c(=O)[nH]/c(=N\c2ccc(OC(C)C)c(C)c2)n(Cc2ccc(C)cc2)c1=O [Compound I-0927] | 7.68
COC(=O)[C@@H](C)Cn1c(=O)[nH]/c(=N\c2ccc(CC3CCCC3)cc2)n(Cc2ccc(C)cc2)c1=O [Compound I-1096] | 7.03
COC(=O)[C@@H](C)Cn1c(=O)[nH]/c(=N\c2ccc(OC(C)C)c(C)c2)n(Cc2ccc(C(C)C)cc2)c1=O [Compound I-0997] | 6.17
CCOc1ccc(Cc2nc(=O)n(C[C@H](C)C(=O)OC)c(=O)n2Cc2ccc(Cl)cc2)cc1 [Compound I-1864] | 6.73
CC[C@@H](C)Oc1ccc(/N=c2\[nH]c(=O)n(CCC(=O)O)c(=O)n2Cc2ccc(C)cc2)cc1Cl [Compound I-1030] | 7.85
COC(=O)[C@@H](C)Cn1c(=O)[nH]/c(=N\c2ccc(OC(F)(F)F)c(Cl)c2)n(Cc2ccc(C)cc2)c1=O [Compound I-1027] | 7.39
O=c1[nH]/c(=N\c2ccc(OCC3CC3)cc2)n(Cc2ccc(Cl)cc2)c(=O)n1C[C@H](O)CO [Compound I-1855] | 7.68
COC(=O)[C@H](C)Cn1c(=O)[nH]/c(=N\c2ccc(OC(C)C)cc2)n(Cc2ccc(C)cc2)c1=O [Compound I-1104] | 7.96

same assay, conditions: human P2X3 receptor, Test Example 1

Compound | pIC50
CC(C)Oc1ccc(/N=c2\[nH]c(=S)n(C(C)C)c(=O)n2Cc2ccc(Cl)cc2)cc1 [Compound I-2254, 1-(4-chlorobenzyl)-3-isopropyl-6-(4-isopropoxyphenylimino)-4-thioxo-1,3,5-triazinane-2-one] | 7.11
CNC(=O)CCn1c(=O)[nH]/c(=N\c2ccc(Oc3cccc(F)n3)cc2)n(Cc2ccc(Cl)cc2)c1=O [Compound I-2655] | 8.30
CCn1c(=O)[nH]/c(=N\c2ccc(Oc3ccc(C#N)nc3)cc2)n(Cc2ccc(Cl)cn2)c1=O [Compound I-2375] | 7.66
Cn1c(=O)[nH]/c(=N\c2ccc(Oc3cccc(C#N)n3)cc2)n(C[C@H]2CC[C@H](C)CC2)c1=O [Compound I-2446] | 9.00
CCn1c(=O)[nH]/c(=N\c2ccc(Oc3cncc(C(=O)O)n3)cc2)n(Cc2ccc(C)cc2)c1=O [Compound I-2474] | 8.15
O=C(O)CCn1c(=O)[nH]/c(=N\c2ccc(Oc3ccc(O)nc3)cc2)n(Cc2ccc(Cl)cc2)c1=O [Compound I-1535] | 7.55
C=COc1ccc(N(C)c2nc(=O)n(C[C@H](C)C(=O)OC)c(=O)n2Cc2ccc(C)cc2)cc1Cl [Compound I-1550] | 6.08
Cc1cnc(Oc2ccc(/N=c3\[nH]c(=O)n(CC(CO)CO)c(=O)n3Cc3ccc(Cl)cc3)cc2)s1 [Compound I-2458] | 8.52
COC(=O)[C@H](C)Cn1c(=O)[nH]/c(=N\c2ccc(N3CCCCC3)cc2)n(Cc2ccc(Cl)cc2)c1=O [Compound I-1484] | 8.22
Cc1ccc(Cn2c(=O)n(C[C@H](C)C(=O)O)c(=O)[nH]/c2=N\c2ccc(CC(C)(C)O)c(Cl)c2)cc1 [Compound I-1532] | 7.60
O=c1[nH]/c(=N\c2ccc(Oc3nccs3)cc2)n(Cc2ccc(Cl)cc2)c(=O)n1CC(O)CO (stereo not drawn) [Compound I-2448] | 7.96
COC(=O)/C=C/c1cccc(Oc2ccc(/N=c3\[nH]c(=O)n(C)c(=O)n3Cc3ccc(Cl)cc3)cc2)c1 [Compound I-2329] | 7.15
CCn1c(=O)[nH]/c(=N\c2ccc(Oc3ccc(C#N)cn3)cc2)n(Cc2ccc(Cl)cc2)c1=O [Compound I-2306] | 8.70
CNC(=O)Cn1c(=O)[nH]/c(=N\c2ccc(Oc3cccnn3)cc2)n(Cc2ccc(Cl)cc2)c1=O [Compound I-2690] | 7.74
CCn1c(=O)[nH]/c(=N\c2ccc(Oc3cc(C(N)=O)n[nH]3)cc2)n(Cc2ccc(Cl)cc2)c1=O [Compound I-2417] | 7.39
O=C(O)Cn1c(=O)[nH]/c(=N\c2ccc(Oc3ccon3)cc2)n(Cc2ccc(Cl)cc2)c1=O [Compound I-2504] | 6.43
CCn1c(=O)[nH]/c(=N\c2ccc(Oc3nnn[nH]3)cc2)n(Cc2ccc(Cl)cc2)c1=O [Compound I-2515] | 6.46
NC(=O)c1cccc(Oc2ccc(/N=c3\[nH]c(=O)n(CCC(=O)O)c(=O)n3Cc3ccc(Cl)cc3)cc2)n1 [Compound I-2693] | 7.92
CCn1c(=O)[nH]/c(=N\c2ccc(Oc3cccc(/C=C/C(=O)OC)c3)cc2)n(Cc2ccc(Cl)cc2)c1=O [Compound I-2224] | 7.48
Cn1c(=O)[nH]/c(=N\c2ccc(Oc3ccc(C#N)cn3)cc2)n(Cc2ccc(Cl)cc2)c1=O [Compound I-2392] | 7.96
